Earlier results, collected in patent US20240261236A1, “METHODS OF USING NMDA RECEPTOR ANTAGONISTS” (Seelos Therapeutics, Inc., priority 2021, published 2024).

Legend:
NMDA receptor = conditions: binds to the NMDA receptor; Moaddel et al. 2013; cited from earlier work
[1] = Leung and Baillie 1986; cited from earlier work
[2] = 56 mg or 84 mg dose; Spravato label; cited from earlier work
[3] = 56 mg or 84 mg doses; Spravato label; cited from earlier work

Row | SMILES | Ki (NMDA receptor) | also measured
1 | N[C@]1(c2ccccc2Cl)CCC[C@H](O)C1=O [(2S,6S)-hydroxynorketamine] | ~21.2 µM | 
2 | NC1(c2ccccc2Cl)CCCC(O)C1=O (centres unmarked) [6-hydroxynorketamine] |  | anesthetic activity [1]: no anesthetic or locomotor activity
3 | NC1(c2ccccc2Cl)CCCCC1=O (centres unmarked) [norketamine] |  | anesthetic activity [1]: anesthetic activity
4 | CN[C@]1(c2ccccc2Cl)CCCCC1=O [(S)-ketamine, (S)-2-(2-chlorophenyl)-2-(methylamino)cyclohexanone] |  | subjects who developed sedation [2]: 48-61%; patients who developed dissociative changes on the CADSS assessment [3]: 61%-69%
5 | N[C@@]1(c2ccccc2Cl)CCCCC1=O [(R)-norketamine] | ~26.5 µM | 
6 | N[C@@]1(c2ccccc2Cl)CCC[C@@H](O)C1=O [(2R,6R)-hydroxynorketamine] | > 100 µM | 
7 | N[C@]1(c2ccccc2Cl)CCCCC1=O [(S)-norketamine] | ~2.25 µM | 
